# Data as given in article PMC11765717, “In Vitro Insights into Bacteriocin-Mediated Modulation of Chicken Cecal Microbiota” (International Journal of Molecular Sciences, 2025).
# Where two headings read alike, the source gives them in different places. Positions of bridges follow the written chain, without caps; N, C: chain ends. Residues, ends and D or L forms follow the SMILES beside them.
# Columns and labels:
# [1] = test system: chicken cecal microbiota; assay: Batch fermentation of chicken cecal microbiota, 16S rRNA gene sequencing; format: cell-based, broiler chickens; settings: for Impact on genera / microbiota composition, in words: 24 h of culture; for Effect on bacterial classes, in words: 12 h of cecal fermentation; for Abundance of Clostridia, in words: 25 vs 250 x MIC; for Beta diversity (PCoA of weighted Unifrac), in words: 24 h of fermentation
# [2] = test system: Salmonella enterica subsp. enterica serotype Newport ATCC 6962
# [3] = test system: Salmonella enterica subsp. enterica serotype Newport ATCC 6962; assay: Residual activity in cecal fermentation medium, agar well diffusion; settings: over the 24 h of fermentation; agar diffusion tests
# [4] = test system: chicken cecal microbiota; assay: Short-chain fatty acids in batch fermentation supernatant; format: cell-based, broiler chickens; settings: 24 h; for Acetate production, in words: 250 times the MIC
# [5] = test system: Listeria ivanovii HPB28; assay: Residual activity in cecal fermentation medium, agar well diffusion; settings: over the 24 h of fermentation; agar diffusion tests
# [6] = test system: L. ivanovii; set-up: method as in PMID 35170996; settings: sensitive strain L. ivanovii; ref [64]; cited from earlier work
# [7] = test system: Streptococcus pyogenes RBL4; assay: Residual activity in cecal fermentation medium, agar well diffusion; format: in vitro ADME; settings: over the 24 h of fermentation; based on inhibition diameters
# Description: Sterile Viande Levure (VL) medium (16 mL in 50 mL penicillin bottles), supplemented with Tween 80, bile salts, minerals, vitamins, porcine mucin (2.0 g/L), fructo-oligosaccharide (2.5 g/L), and citrus pectin (2.5 g/L), as described previously, and adjusted to pH 6 with 5 M NaOH, was inoculated with […] fecal slurry (10% inoculum, w/v). The antimicrobial compound was added in a volume of 1 mL to obtain 25 or 250 times the minimal inhibitory concentration (Table 1).
# To ensure anaerobic conditions, the bottles were inoculated and sealed in an oxygen-free chamber. They were incubated at 41 °C and 80 rpm on an orbital shaker for up to 24 h. For each experimental treatment, samples were collected at 0, 12, and 24 h and kept at −80 °C until analysis.
# The inhibitory activity of each antimicrobial agent was assessed qualitatively in terms of inhibition zones around agar wells. Briefly, 80 μL of sample was added to wells in pour plates (25 mL) seeded with 250 µL of overnight culture of indicator strain. Following 18 h of incubation at the appropriate temperature, inhibition diameters were measured. Photographs were taken using ChemiDoc XRS (Bio-Rad, Hercules, CA, USA).
# [8] = test system: C. perfringens; settings: sensitive strain C. perfringens; ref [62]; cited from earlier work
# [9] = test system: S. enterica; set-up: method as in PMID 35543514; settings: sensitive strain S. enterica; ref [63]; cited from earlier work
# Excerpt: Table 1 Minimum inhibitory concentration (MIC) of the antimicrobial compounds tested (provided in µg/mL and in µmol/L) and residual activities over time in the cecal fermentation medium, after the introduction of the compounds at 25 (top) or 250 times (bottom) the minimal inhibitory concentration (MIC).
molecule,measurement,setting,value
CN(C)[C@@H]1C(O)=C(C(N)=O)C(=O)[C@@]2(O)C(O)=C3C(=O)c4c(O)cccc4[C@@](C)(O)[C@H]3C[C@@H]12 [Tetracycline],"Impact on genera / microbiota composition, in words",[1],mainly affected the Gram-negative bacteria Gallibacterium and the Gram-positive bacteria Phascolarctobacterium
same,"Genera Enterococcus, in words",[1]; after 24 h,reduced
same,Residual Activity 6 h,[2],+++ +++
same,"Stability of inhibitory activity in batch fermentation, in words",[3],remained highly active
"Pediocin PA-1 (M31L) (KYYGNGVTCGKHSCSVDWGKATTCIINNGALAWATGGHQGNHKC; UniProt P29430 19-62, looked up, variant M31L)","Effect on bacterial classes, in words",[1],dose-dependent effects
same,"Impact on genera / microbiota composition, in words",[1],moderate effect
same,"Genera Enterococcus, in words","[1]; after 24 h, highest concentration",reduced
same,"Butyrate levels, in words",[4]; lowest concentration,tended to decrease
same,"Stability of inhibitory activity in batch fermentation, in words",[5],weak activity
Nisin Z,"Abundance of Clostridia, in words",[1],dose-dependent decrease
same,"Effect on bacterial classes, in words",[1],dose-dependent effects
same,"Impact on genera / microbiota composition, in words",[1],had the most impact on microbiota composition
same,"Beta diversity (PCoA of weighted Unifrac), in words",[1],tended to cluster separately
same,"Genera Enterococcus, in words",[1]; after 24 h,reduced
same,"Alpha diversity (Shannon entropy), in words","[1]; t0, as compared to control",highest diversity
same,"Acetate production, in words",[4],reached maximal ranges
same,"Butyrate levels, in words",[4]; lowest concentration,tended to decrease
same,MIC (µM),[6],0.18 µM
same,MIC (µg/mL),[6],1.56 µg/mL
Bacitracin,"Effect on bacterial classes, in words",[1],dose-dependent effects
same,"Impact on genera / microbiota composition, in words",[1],"mainly impacted Streptococcus and Ruminococcus together with different Clostridia (Lachnoclostridium, Erysipelatoclostridium, and Oscillibacter), while promoting the genera Escherichia/Shigella"
same,"Stability of inhibitory activity in batch fermentation, in words",[7],least stable
same,"Acetate production, in words",[4],reached maximal ranges
same,"Butyrate levels, in words",[4]; UHPLC-UV 210 nm,significant decrease
same,MIC,[8],1.50 µg/mL
O=C(O)c1cn(C2CC2)c2cc(N3CCNCC3)c(F)cc2c1=O [Ciprofloxacin],"Impact on genera / microbiota composition, in words",[1],"impacted Gram-positive (Clostridia, Enterococcus and Streptococcus) as well as Gram-negative bacteria (Escherichia/Shigella and Gallibacterium)"
same,"Genera Enterococcus, in words",[1]; after 24 h,reduced
same,MIC (µM),[9],0.60 µM
same,MIC (µg/mL),[9],0.19 µg/mL
same,Residual Activity 0 h,[2],+++ +++
CO[C@H]1/C=C/O[C@@]2(C)Oc3c(C)c(O)c4c(O)c(c(/C=N/N5CCN(C)CC5)c(O)c4c3C2=O)NC(=O)/C(C)=C\C=C\[C@H](C)[C@H](O)[C@@H](C)[C@@H](O)[C@@H](C)[C@H](OC(C)=O)[C@@H]1C [Rifampicin],Relative abundance of Bacteroidia,"[1]; 24 h, concentrations not assigned",0.02
same,"Impact on genera / microbiota composition, in words",[1],mainly impacted the genera Bacteroides and Parabacteroides
same,"Beta diversity (PCoA of weighted Unifrac), in words",[1],tended to cluster separately
same,"Genera Enterococcus, in words","[1]; after 24 h, lowest concentration",reduced
same,MIC (µM),[9],0.47 µM
same,MIC (µg/mL),[9],0.39 µg/mL
same,"Acetate production, in words",[4],reached maximal ranges
Colistin,"Relative abundance of Escherichia, in words",[1],dropped
same,"Abundance of Clostridia, in words",[1],dose-dependent decrease
same,Relative abundance of Gammaproteobacteria,[1]; 25× MIC,0.03
same,"Effect on bacterial classes, in words",[1],dose-dependent effects
same,"Impact on genera / microbiota composition, in words",[1],strongly impaired Escherichia/Shigella together with other Gram-negative bacteria (Gallibacterium and Butyricimonas)
same,"Alpha diversity (Shannon entropy), in words","[1]; after 12 h, compared to bacitracin, rifampicin, tetracycline, MccE492 and nisin",lower alpha diversity
same,"Alpha diversity (Shannon entropy), in words",[1]; after 24 h,lowest alpha diversity
same,MIC (µM),[9],0.69 µM
same,MIC (µg/mL),[9],0.80 µg/mL
same,Residual Activity 0 h,[2],++ ++
same,Residual Activity 6 h,[2],++ ++
same,Residual Activity 12 h,[2],++ ++
same,Residual Activity 24 h,[2],++ ++
same,"Butyrate levels, in words",[4]; highest concentration,tended to decrease
CC[C@H](C)[C@H](NC(=O)CNC(=O)[C@@H](NC(=O)[C@H](Cc1ccccc1)NC(=O)[C@H](Cc1ccc(O)cc1)NC(=O)[C@@H]1CCC(=O)NCC(=O)NCC(=O)N[C@@H](C)C(=O)NCC(=O)N[C@@H](Cc2cnc[nH]2)C(=O)N[C@@H](C(C)C)C(=O)N2CCC[C@H]2C(=O)N1)C(C)C)C(=O)NCC(=O)N[C@H](C(=O)N1CCC[C@H]1C(=O)N[C@H](C(=O)N[C@@H](CO)C(=O)N[C@@H](Cc1ccccc1)C(=O)N[C@@H](Cc1ccc(O)cc1)C(=O)NCC(=O)O)[C@@H](C)CC)[C@@H](C)O [Microcin J25] (GGAGHVPEYFVGIGTPISFYG-OH; lactam N-8),"Stability of inhibitory activity in batch fermentation, in words",[2],significant inhibitory activity at 24 h
"Microcin E492 (peptide, UniProt Q9Z4N4 16-99, looked up, 84 aa siderophore peptide produced by Klebsiella pneumoniae, produced heterologously in E. coli MC4100) Microcin E492: GETDPNTQLLNDLGNNMAWGAALGAPGGLGSAALGAAGGALQTVGQGLIDHGPVNVPIPVLIGPSWNGSGSGYNSATSSSGSGS","Impact on genera / microbiota composition, in words",[1],only minor effects
same,"Genera Enterococcus, in words",[1]; after 24 h,reduced
same,"Alteration in the relative abundance of the identified taxa, in words",[1]; class level,neither MccJ25 nor MccE492 induced a statistically significant alteration
same,"Alpha diversity (Shannon entropy), in words","[1]; t0, as compared to control",highest diversity
same,MIC (µM),[9],0.18 µM
same,MIC (µg/mL),[9],1.56 µg/mL
